# Results as given in patent publication US20220117945A1, “ISOXAZOLE CARBOXAMIDE COMPOUNDS AND USES THEREOF” (NOVARTIS AG, priority 2017, published 2022).
# Tested on: Atoh1 expression in mouse cerebellar neural precursor cells
# Assay: Atoh1 induction assay in mouse cerebellar neural precursor cells (NPCs), Atoh1-GFP reporter
# Format: cell-based
# Settings: 10 doses 50 μM to 200 nM, 72 hours treatment, DMSO control = 1, more than 5 considered significant, read-out: fold difference (maximum fold difference of GFP average intensity in cell nuclei over the DMSO control)
# Protocol: Compounds of the present disclosure were assessed for their ability to increase the Atoh1 expression in mouse cerebellar neural precursor cells. The ability of compounds of the present disclosure to induce new hair cell formation was assessed in ex vivo hair cell induction assay using 6-day-postnatal mouse cochlea explants with hair cell damage.
# Atoh1 Induction Assay in Mouse Cerebellar Neural Precursor Cells (NPCs)
# Atoh1 induction assay was conducted with in vitro cultured cerebellar neural precursor cells isolated from neonatal transgenic Atoh1-GFP mice. Atoh1 expression is mainly regulated by the enhancer, and the nuclear GFP was driven by the cloned enhancer sequence at 3′ of Atoh1 which had high conservation among mammalians. So Atoh1 induction could be reflected by GFP activation in cerebellar neural precursor cells (Helms et al., Development 2000; 127: 1185-1196; Lumpkin et al., Gene Expression Patterns 2003; 3: 389-395). Postnatal 3 days pups were dissected for cerebellum tissue isolation. The cerebellum tissue was cut into small pieces, and dissociated with 0.05% Trypsin for about 10 minutes at 37° C., and then filtered with a 70 uM cell strainer. The cells were cultured as neuropsheres for the first 2 days in ultra-low attachment dish/well-plate with DMEM/F12+1% N2 &2% B27 with 1% P/S, 20 ng/ml rhFGF2 and 20 ng/ml rhEGF (R&D Systems). Then the spheres were plated to the matrigel (1:30 diluted in DMEM/F12)-coated tissue culture dish for monolayer culture. After 4.5-5.5 days culture in vitro (DIV), cells were dissociated with 0.05% trypsin into single cells, and frozen after cell number calculation.
# The cerebellar neural precursor cells (NPCs) were re-thawed from stock and cultured for another 2 days before used for Atoh1 induction assay. On the first day of assay, NPCs were seeded into matrigel-coated 384 well plates (Black view-plate, PE) at 2500 cells/well. After over-night culture, the NPCs were treated with representative compounds of the present disclosure with 1:2 serial dilutions for 10 doses, from 50 μM to 200 nM, with DMSO as negative control. After 72 hours treatment without medium change, the cells were fixed with 4% formalin for staining. Assay plates were stained with GFP antibody (Abcam, #13970, 1:1000) to amplify endogenous GFP signal and then read by Cellomics.
row,Structure (SMILES),maximal fold induction
1,"O=C(NCCCCCN1CCNC(c2ccccc2)C1)c1cc(-c2cccs2)on1 (stereo not drawn) [Example 1, N-(5-(3-Phenylpiperazin-1-yl)pentyl)-5-(thiophen-2-yl)isoxazole-3-carboxamide]",22.4
2,"CC(C)(C)OC(=O)N1CCN(CCCCCNC(=O)c2cc(-c3cccs3)on2)CC1 [Example 2, tert-Butyl 4-(5-(5-(thiophen-2-yl)isoxazole-3-carboxamido)pentyl)piperazine-1-carboxylate]",35.4
3,"O=C(NCCCCCN1CCNCC1)c1cc(-c2cccs2)on1 [Example 3, N-(5-(Piperazin-1-yl)pentyl)-5-(thiophen-2-yl)isoxazole-3-carboxamide]",21
4,"O=C(NCCCCCN1CC2CC1CN2)c1cc(-c2cccs2)on1 (stereo not drawn) [Example 4, N-(5-(2,5-Diazabicyclo[2.2.1]heptan-2-yl)pentyl)-5-(thiophen-2-yl)isoxazole-3-carboxamide]",30.7
5,"C[C@@H]1CNCCN1CCCCCNC(=O)c1cc(-c2cccs2)on1 [Example 5, (R)—N-(5-(2-Methylpiperazin-1-yl)pentyl)-5-(thiophen-2-yl)isoxazole-3-carboxamide]",32.5
6,"CC(C)C[C@H]1CN(CCCCCNC(=O)c2cc(-c3cccs3)on2)CCN1 [Example 6, (S)—N-(5-(3-isobutylpiperazin-1-yl)pentyl)-5-(thiophen-2-yl)isoxazole-3-carboxamide]",9
7,"O=C(NCCCCCN1CCCC1)c1cc(-c2cccs2)on1 [Example 7, N-(5-(Pyrrolidin-1-yl)pentyl)-5-(thiophen-2-yl)isoxazole-3-carboxamide]",31
8,"CN1CC2CCC(C1)N2CCCCCNC(=O)c1cc(-c2cccs2)on1 [Example 13, N-(5-(3-Methyl-3,8-diazabicyclo[3.2.1]octan-8-yl)pentyl)-5-(thiophen-2-yl)isoxazole-3-carboxamide]",23
9,"CC(=O)NC1CN(CCCCCNC(=O)c2cc(-c3cccs3)on2)C1 [Example 16, N-(5-(3-Acetamidoazetidin-1-yl)pentyl)-5-(thiophen-2-yl)isoxazole-3-carboxamide]",25.3
10,"CNC(=O)NC1CN(CCCCCNC(=O)c2cc(-c3cccs3)on2)C1 [Example 18, N-(5-(3-(3-Methylureido)azetidin-1-yl)pentyl)-5-(thiophen-2-yl)isoxazole-3-carboxamide]",17.6
11,"CS(=O)(=O)NC1CN(CCCCCNC(=O)c2cc(-c3cccs3)on2)C1 [Example 19, N-(5-(3-(Methylsulfonamido)azetidin-1-yl)pentyl)-5-(thiophen-2-yl)isoxazole-3-carboxamide]",31.7
12,"O=C(NC1CN(CCCCCNC(=O)c2cc(-c3cccs3)on2)C1)OCCO [Example 20, 2-Hydroxyethyl (1-(5-(5-(thiophen-2-yl)isoxazole-3-carboxamido)pentyl)azetidin-3-yl)carbamate]",29.4
13,"N#CCCOC(=O)NC1CN(CCCCCNC(=O)c2cc(-c3cccs3)on2)C1 [Example 21, 2-Cyanoethyl (1-(5-(5-(thiophen-2-yl)isoxazole-3-carboxamido)pentyl)azetidin-3-yl)carbamate]",13
14,"CS(=O)(=O)NC1CN(CCCCCNC(=O)c2cc(-c3ccc(F)cc3)on2)C1 [Example 22, 5-(4-Fluorophenyl)-N-(5-(3-(methylsulfonamido)azetidin-1-yl)pentyl)isoxazole-3-carboxamide]",25.5
15,"CNC(=O)NC1CN(CCCCCNC(=O)c2cc(-c3ccc(F)cc3)on2)C1 [Example 23, 5-(4-Fluorophenyl)-N-(5-(3-(3-methylureido)azetidin-1-yl)pentyl)isoxazole-3-carboxamide]",25.7
16,"COC(=O)N1CCN(CCCCCNC(=O)c2cc(-c3cccs3)on2)CC1 [Example 24, Methyl 4-(5-(5-(thiophen-2-yl)isoxazole-3-carboxamido)pentyl)piperazine-1-carboxylate]",24
17,"CNC(=O)N1CCN(CCCCCNC(=O)c2cc(-c3cccs3)on2)CC1 [Example 25, N-(5-(4-(Methylcarbamoyl)piperazin-1-yl)pentyl)-5-(thiophen-2-yl)isoxazole-3-carboxamide]",10.1
18,"O=C1CCN(CCCCCNC(=O)c2cc(-c3cccs3)on2)C1 [Example 26, N-(5-(3-Oxopyrrolidin-1-yl)pentyl)-5-(thiophen-2-yl)isoxazole-3-carboxamide]",7.1
19,CN(C)C(=O)C1CN(CCCCCNC(=O)c2cc(-c3ccc(F)cc3)on2)C1 [Example 28],28.6
20,N#CC1CCN(CCCCCNC(=O)c2cc(-c3cccs3)on2)C1 (stereo not drawn) [Example 29],20.1
21,CC(=O)N1CCN(CCCCCNC(=O)c2cc(-c3ccc(F)cc3)on2)CC1 [Example 30],13.4

row,Structure (SMILES),maximal fold induction
1,O=C(NCCCCCN1CCC(F)(F)CC1)c1cc(-c2cccs2)on1 [Example 31],16
2,O=C(NCCCCCN1CCC(F)C1)c1cc(-c2cccs2)on1 (stereo not drawn) [Example 32],26.8
3,O=C(NCCCCCN1CC(CO)C1)c1cc(-c2ccc(F)cc2)on1 [Example 33],26.1
4,O=C(NCCCCCN1CC2(COC2)C1)c1cc(-c2cccs2)on1 [Example 34],20.8
5,N#CC1CN(CCCCCNC(=O)c2cc(-c3cccs3)on2)C1 [Example 35],29.7
6,O=C1CN(CCCCCNC(=O)c2cc(-c3cccs3)on2)CCN1 [Example 37],13.5
7,CN1CCN(CCCCCNC(=O)c2cc(-c3cccs3)on2)CC1=O [Example 38],34.3
8,O=C(NCCCCCN1CCC(O)CC1)c1cc(-c2cccs2)on1 [Example 39],20.5
9,O=C(NCCCCCN1CCN2CCCC2C1)c1cc(-c2cccs2)on1 (stereo not drawn) [Example 41],21.9
10,C[C@H]1CN(CCCCCNC(=O)c2cc(-c3cccs3)on2)C[C@H](C)O1 [Example 43],21.5
11,O=C(NCCCCCN1CC(F)C1)c1cc(-c2ccc(F)cc2)on1 [Example 44],34.7
12,CN(C)C(=O)C1CN(CCCCCNC(=O)c2cc(-c3cccs3)on2)C1 [Example 46],18
13,O=C(NCCCCCN1CCCC(F)C1)c1cc(-c2cccs2)on1 (stereo not drawn) [Example 50],23.4
14,O=C(NCCCCCN1CCCC(O)C1)c1cc(-c2cccs2)on1 (stereo not drawn) [Example 57],15.4
15,O=C(NCCCCCN1CC(F)(F)C1)c1cc(-c2cccs2)on1 [Example 58],10
16,CN1C[C@H]2C[C@@H]1CN2CCCCCNC(=O)c1cc(-c2cccs2)on1 [Example 60],18.7
17,"CNC(=O)C1CN(CCCCCNC(=O)c2cc(-c3cccs3)on2)C1 [Example 61, N-(5-(3-(methylcarbamoyl)azetidin-1-yl)pentyl)-5-(thiophen-2-yl)isoxazole-3-carboxamide]",33.7
18,O=C(NCCCCCN1CC(C(=O)NC2CC2)C1)c1cc(-c2cccs2)on1 [Example 62],26.6
19,CS(=O)(=O)C1CN(CCCCCNC(=O)c2cc(-c3cccs3)on2)C1 [Example 63],19.8
20,N#CC1CN(CCCCCNC(=O)c2cc(-c3ccc(F)cc3)on2)C1 [Example 64],36.2
21,COC1CN(CCCCCNC(=O)c2cc(-c3ccc(F)cc3)on2)C1 [Example 68],22.3
